{
  "source": "patent US9034878B2",
  "about": "“Treatment of diseases” (Ampio Pharmaceuticals, Inc., priority 2010, dated 2015)",
  "key": {"[1]": {"experiment": "Complete blood count and biochemical survey after oral DA-DKP", "format": "in vivo", "conditions": "100 mg oral, human", "description": "(§1) • 1. Two human male volunteers and one human volunteer (respectively) were administered 100 mg of DA-DKP (packed in a gelatin capsule) orally on an empty stomach after overnight fasting. The DA-DKP was composed of L-aspartic acid and L-alanine. • 2. Venous blood samples were drawn into heparinized and EDTA vacutainers at baseline (time zero), 2 hours (hrs), 4 hrs and 24 hrs after the ingestion of the DA-DKP. • 3. Blood samples were analyzed for a complete blood count (CBC) and a biochemical survey, including plasma lipids at baseline and at the 24 hrs time points. Plasma was also used for measurement of the level of DA-DKP by a liquid chromatography mass spectrometer (LCMS) method (protocol and results given below). • 4. Peripheral blood monocytes (PBMC) from heparinized bloods were extracted by Ficoll gradient method and analyzed by flow cytometry. The protocol and results are given below. • 5. Urines were collected for 24 hrs and volumes were recorded. DA-DKP levels were also measured by LCMS. • 6. Saliva at 2 hrs was tested for the presence of DA-DKP by LCMS. Summary of Results: • 1. CBC's were unchanged and remained within the normal range. • 2. […] Urine levels of DA-DKP were calculated (see Table 2). • 6. Saliva DA-DKP levels were calculated (see Table 2) • 7. […]"}, "endothelial cells": {"tested_on": "endothelial cells", "conditions": "provisional application No. 61/380,404; cited from earlier work"}, "[2]": {"tested_on": "Peripheral blood mononuclear cells (PBMC)", "experiment": "PBMC CD69 expression by flow cytometry after OKT3 stimulation (ex vivo)", "format": "cell-based, human", "conditions": "single individual", "description": "as §1, with “Plasma was also used for measurement of the level of DA-DKP by a liquid chromatography mass spectrometer (LCMS) method (protocol and results given below). • 4.” left out, “The protocol and results are given below. • 5.” left out, “6.” for “6. Saliva at 2 hrs was tested for the presence of DA-DKP by LCMS. Summary of Results: • 1. CBC's were unchanged and remained within the normal range. • 2.”\nPeripheral blood mononuclear cells (PBMC) were isolated from peripheral blood, and 2,000,000 cells were cultured in DMEM medium with 10% human AB serum plus 2% (final concentration) of anti-T-cell receptor complex antibody OKT3. […] After culture overnight at 37° C. cells were washed, incubated with an anti-CD69 antibody, fixed and analyzed on the flow cytometer for CD69 expression. […]"}, "[3]": {"experiment": "Effects noticed by subjects after oral DA-DKP (appetite, analgesia, side effects)", "format": "in vivo, human", "conditions": "100 mg oral", "description": "(§2) • 1. Two human male volunteers and one human volunteer (respectively) were administered 100 mg of DA-DKP (packed in a gelatin capsule) orally on an empty stomach after overnight fasting. The DA-DKP was composed of L-aspartic acid and L-alanine. • 2. Venous blood samples were drawn into heparinized and EDTA vacutainers at baseline (time zero), 2 hours (hrs), 4 hrs and 24 hrs after the ingestion of the DA-DKP. • 3. Blood samples were analyzed for a complete blood count (CBC) and a biochemical survey, including plasma lipids at baseline and at the 24 hrs time points. Plasma was also used for measurement of the level of DA-DKP by a liquid chromatography mass spectrometer (LCMS) method (protocol and results given below). • 4. Peripheral blood monocytes (PBMC) from heparinized bloods were extracted by Ficoll gradient method and analyzed by flow cytometry. The protocol and results are given below. • 5. Urines were collected for 24 hrs and volumes were recorded. DA-DKP levels were also measured by LCMS. • 6. Saliva at 2 hrs was tested for the presence of DA-DKP by LCMS. Summary of Results: • 1. CBC's were unchanged and remained within the normal range. • 2. BUN, glucose electrolytes, creatinine, liver function tests, total protein, albumin and calcium were unchanged and within the normal range at 24 hours post ingestion. • 3. […] Urine levels of DA-DKP were calculated (see Table 2). • 6. Saliva DA-DKP levels were calculated (see Table 2) • 7. PBMC results are described below. • 8. Effects noticed by subjects: • a. Significant loss of appetite (lasting 8-9 hrs)—3/3 subjects • b. Slight dry mouth—2/3 subjects • c. Thick saliva—1/3 subjects • d. […] Laxative effect—1/3 subjects • f. Slight drowsiness—1/3 subjects * Analgesic Effect:\nOne subject had left knee and left Sacroiliac (SI) joint pain. […] The pain originates probably from inflammation caused by sarcoidosis and was 6-7 on a scale of 1-10 before treatment. The effect lasted for about 4 hrs."}, "platelets": {"tested_on": "platelets", "conditions": "U.S. Pat. Nos. 6,555,543 and 7,732,403; cited from earlier work"}, "T-cells": {"tested_on": "T-cells", "conditions": "U.S. Pat. Nos. 6,555,543 and 7,732,403; cited from earlier work"}, "[4]": {"experiment": "Plasma lipids after a single oral dose of DA-DKP in human volunteers", "format": "in vivo", "conditions": "100 mg oral; all three subjects", "description": "as §1"}, "[5]": {"tested_on": "Subcutaneous preadipocytes", "experiment": "Adipogenesis assay (AdipoRed fluorescence)", "format": "cell-based", "conditions": "14 days differentiation", "description": "Subcutaneous preadipocytes (Zen-Bio, Inc., Research Triangle Park, N.C.) were cultured to near confluency at 5% CO2, 37° C. in Preadipocyte Growth Medium-2 (PGM-2, Lonza, Walkersville, Md.) containing 10% fetal bovine serum (FBS), L-glutamine, and GA-1000. Cells were harvested using trypsin/EDTA (Lonza) and initially seeded in 96-well black/clear bottom plates at 3,000 cells/well. Cells were allowed to form a confluent monolayer for 7 days in culture.\n7-day old medium was aspirated and cells were dosed with DA-DKP (doses used in PGM-2 media: 25, 50, or 100 μM) in triplicate on two plates. The DA-DKP was composed of L-aspartic acid and L-alanine. […]\nAfter the 14 day incubation period, culture media were collected from all wells and stored at −20° C. for IL-6 ELISA (see below). […] After 10 minutes, fluorescence was measured on a plate reader set at λEX=485 nm and λEM=572 nm.\nThe triplicate fluorescent values for each treatment were averaged and subtracted from the average media only (i.e. no cells) wells. For the differentiated wells, a % change was calculated by subtracting the average fluorescent value for the differentiated cells from the undifferentiated cells for each treatment group. […] All data are expressed as ±SD. […]"}, "MAPK": {"tested_on": "MAPK", "conditions": "reference 12; cited from earlier work"}, "interleukin-6 (IL-6)": {"tested_on": "interleukin-6 (IL-6)", "experiment": "IL-6 ELISA of preadipocyte culture media", "format": "cell-based", "conditions": "after the 2 week differentiation period (data not shown)", "description": "7-day old medium was aspirated and cells were dosed with DA-DKP (doses used in PGM-2 media: 25, 50, or 100 μM) in triplicate on two plates. The DA-DKP was composed of L-aspartic acid and L-alanine. PGM-2 differentiation media (containing insulin, dexamethasone, indomethacin, and isobutyl-methylxanthine; Lonza) was added to one plate, while PGM-2 media was added to the other. Plates were then placed back in culture and allowed to incubate for 14 days.\nAfter the 14 day incubation period, culture media were collected from all wells and stored at −20° C. for IL-6 ELISA (see below). Wells were rinsed once with 1×PBS (Lonza). 50 μL M-PER lysis solution (Thermo Scientific, Rockford, Ill.) were added to all wells, and complete cell lysis was achieved by mixing each well. 150 μL 1×PBS was added to each well. 5 μL AdipoRed™ Reagent (Lonza) was added to each well, and the plate was mixed immediately by gentle tapping. After 10 minutes, fluorescence was measured on a plate reader set at λEX=485 nm and λEM=572 nm.\nEnzyme-linked immunosorbent assay (ELISA) matched-pair antibodies for interleukin-6 (IL-6) were obtained from Thermo Scientific (Rockford, Ill.). IL-6 was analyzed by ELISA and performed according to the manufacturer's instructions. A 1:10 dilution of each supernatant was measured in duplicate using an IL-6 standard (Thermo Scientific, Rockford, Ill.)."}, "[6]": {"tested_on": "vascular endothelial barrier", "conditions": "provisional application No. 61/380,404; cited from earlier work"}, "[7]": {"experiment": "DA-DKP LCMS measurement in plasma, urine and saliva after oral dose", "format": "in vivo, human", "conditions": "100 mg oral", "description": "as §2, with “Venous blood samples were drawn into heparinized and EDTA vacutainers at baseline (time zero), 2 hours (hrs), 4 hrs and 24 hrs after the ingestion of the DA-DKP. • 3.” left out\nPlasma or urines were passed through a <5 Kd filter and 50 μl of the flow-through fractions were injected into high performance liquid chromatography (HPLC, 2975 system, Waters, Mass.) coupled to a mass spectrometer (LCT-TOF, Micromass, UK) and DA-DKP was quantified using a strong anion exchange column (Spherisorb, S5 SAX 250 mm×4.0 mm, Waters) and a ternary mobile phase consisting of water, methanol and 200 mM Ammonium Formate (Sigma Aldrich, Mo.), pH 5.4, at 0.5 ml/min flow rate in a gradient as shown in Table A.\nThe output of the HPLC was split 1:20 (v:v) and injected into the mass spectrometer using negative electrospray ionization (−ESI MS) with a scan range of 80 to 1000 m/z, cone voltage of 30 eV, source temperature of 100° C., and gas temperature of 300° C. DA-DKP was measured by monitoring the mass 185 in time, which corresponds to DA-DKP minus a single proton (—H+). DA-DKP elutes at 10.4 minutes and was quantified by integrating the area under the curve. The area was compared to a standard curve derived from synthetic DA-DKP standards (DMI Synthesis, Newport Wales, UK) of known concentrations (2000 ng/ml, 1000 ng/ml, 400 ng/ml, 200 ng/ml, 100 ng/ml, 20 ng/ml)."}},
  "note": "Several values for one entry are separate records, joined by “and”; a condition that tells them apart may be missing. Identical values can stand only once.",
  "data": [
    {"compound": "C[C@@H]1NC(=O)[C@H](CC(=O)O)NC1=O", "note": "[DA-DKP]", "values": [
      {"measurement": "BUN, glucose electrolytes, creatinine, liver function tests, total protein, albumin and calcium", "setting": "[1]; 24 hours post ingestion, within the normal range", "value": "unchanged"},
      {"measurement": "CBC", "setting": "[1]; remained within the normal range", "value": "unchanged"},
      {"measurement": "Cytoskeletal network in endothelial cells", "setting": "endothelial cells", "value": "stabilize"},
      {"measurement": "Time of greatest effect on CD69 expression", "setting": "[2]; after DA-DKP ingestion", "value": 4, "unit": "h"},
      {"measurement": "CD69 expression on CD45RA and CD45RO cells", "setting": "[2]; after ingestion of DA-DKP vs time zero, OKT3 stimulation", "value": "decreased"},
      {"measurement": "Duration of loss of appetite", "setting": "[3]; human", "value": "8 to 9", "unit": "h"},
      {"measurement": "Laxative effect, subjects affected", "setting": "[3]; human", "value": "1/3"},
      {"measurement": "Significant loss of appetite, subjects affected", "setting": "[3]; human", "value": "3/3"},
      {"measurement": "Slight drowsiness, subjects affected", "setting": "[3]; human", "value": "1/3"},
      {"measurement": "Slight dry mouth, subjects affected", "setting": "[3]; human", "value": "2/3"},
      {"measurement": "Thick saliva, subjects affected", "setting": "[3]; human", "value": "1/3"},
      {"measurement": "Analgesic effect, subjects affected", "setting": "[3]; human, others did not have pain", "value": "1/3"},
      {"measurement": "Duration of analgesic effect", "setting": "[3]; one subject", "value": "about 4 hrs"},
      {"measurement": "Reduction of SI joint pain", "setting": "[3]; one subject", "value": "about 50%"},
      {"measurement": "Time to analgesic effect after ingestion", "setting": "[3]; one subject", "value": "1 to 2", "unit": "h"},
      {"measurement": "Left knee pain", "setting": "[3]; one subject, pain 6-7 on a scale of 1-10 before treatment", "value": "resolved completely"},
      {"measurement": "Aggregation of platelets", "setting": "platelets", "value": "inhibit"},
      {"measurement": "Activation of T-cells", "setting": "T-cells", "value": "inhibit"},
      {"measurement": "Lipids at 24 hours post ingestion", "setting": "[4]", "value": "decreased across the board"},
      {"measurement": "Effect on adipogenesis", "setting": "[5]; 25 μM", "value": "significant decrease"},
      {"measurement": "Effect on adipogenesis", "setting": "[5]; 100 μM", "value": "increase"},
      {"measurement": "MAPK activity in T-lymphocytes", "setting": "MAPK", "value": "inhibitory effect"},
      {"measurement": "Effect on IL-6 levels", "setting": "interleukin-6 (IL-6)", "value": "no significant effect"},
      {"measurement": "Vascular hyperpermeability", "setting": "[6]", "value": "inhibit"},
      {"measurement": "DA-DKP plasma level at 24 hrs post ingestion", "setting": "[7]; human", "value": "not detectable"},
      {"measurement": "Time of peak DA-DKP plasma level", "setting": "[7]; human", "value": "about 2 hrs"},
      {"measurement": "DA-DKP in plasma, 15 min", "setting": "[7]; 15 min, per human subject", "value": 0.14, "unit": "µM"},
      {"measurement": "DA-DKP in plasma, 30 min", "setting": "[7]; 30 min, per human subject", "value": 0.35, "unit": "µM"},
      {"measurement": "DA-DKP in plasma, 60 min", "setting": "[7]; 60 min, per human subject", "value": 0.84, "unit": "µM"},
      {"measurement": "DA-DKP in plasma, 240 min", "setting": "[7]; 240 min, per human subject", "value": "0.25 µM and 0.34 µM"},
      {"measurement": "DA-DKP in plasma, 360 min", "setting": "[7]; 360 min, per human subject", "value": 0.61, "unit": "µM"},
      {"measurement": "DA-DKP in Saliva 2 hrs", "setting": "[7]; saliva at 2 hrs, per human subject", "value": "0.22 µM and 0.29 µM"},
      {"measurement": "DA-DKP in Urine 24 hrs", "setting": "[7]; urine collected for 24 hrs, per human subject", "value": "4.25 µM and 6.98 µM and 3.52 µM"}
    ]}
  ]
}
